Measurements published in PMC9241669, “Allantodapsone is a Pan-Inhibitor of Staphylococcus aureus Adhesion to Fibrinogen, Loricrin, and Cytokeratin 10” (Microbiology Spectrum, 2022).
In brackets after ≈: the same amount, converted by molar mass. Several values for one entry are separate records, joined by “and”; a condition that tells them apart may be missing. Equal entries are not always repeated. Entries after “also recorded” stand apart in the source; their conditions may differ.

What was measured:
S. aureus Newman [1] = experiment: Antimicrobial assay (bacterial growth in BHI broth); type: cell-based, Staphylococcus aureus; conditions: for MIC90: Staphylococcus aureus, S. aureus Newman, overnight growth in BHI broth; for inhibition of bacterial growth (words): overnight in BHI broth, allantodapsone up to 100 μM, versus vehicle control
Experimental: S. aureus was grown in BHI broth shaking overnight at 37°C in the presence of a range of concentrations of allantodapsone, dapsone, or ampicillin as control. Absorbance was measured the following day at 570 nm. Data have been normalized to the relevant vehicle control (1% DMSO for allantodapsone and dapsone and water for ampicillin). […] Error bars represent SEM.
S. aureus was grown overnight in BHI broth at 37°C in shaking incubator. Wells were inoculated with 10 μL of overnight culture into 90 μL of broth containing the test compounds or controls. A growth control containing no agents was used (positive control), a sterility control of broth alone was included, and vehicle controls were included for each test compound. Plates were incubated overnight at 37°C and absorbance measured at 570 nm the following day using a Wallac Victor2, (Shelton, CT, USA).

MSSA isolates = conditions: cited from earlier work
S. aureus Newman [2] = experiment: Adhesion of S. aureus Newman to immobilized fibrinogen (crystal violet); type: cell-based, Staphylococcus aureus; conditions: for inhibition of adhesion to fibrinogen: S. aureus Newman, stationary and exponential phase, compounds screened at 70 μM (Fig. 2); for activity of individual fragments of allantodapsone: assay not specified
Experimental: FIG 1 Allantodapsone inhibits S. aureus Newman adhesion to fibrinogen. Dose response curves for S. aureus Newman (A), L. lactis ClfA (B), and L. lactis ClfB (C) adhesion to fibrinogen. Fibrinogen was used to coat plates at 4°C overnight at 10 μg/mL. Wells were washed with PBS and blocked with 1% BSA. Washed bacteria (OD600 of 1) were mixed with the relevant concentration of allantodapsone or vehicle control (DMSO) for 5 min, and added to the wells, incubating for 2 h at 37°C. Adherent cells were washed, fixed, and stained with crystal violet, and wells further washed. The dye was dissolved in acetic acid and the absorbance measured at 570 nm. IC50 values were generated using GraphPad Prism 9.0 GraphPad software, San Diego, CA. Data are representative of three experiments with error presented as SEM.
(§1) FIG 2 Allantodapsone inhibits S. aureus adhesion to fibrinogen. (A) S. aureus Newman stationary phase and (B) exponential phase. (C) S. aureus SH1000 stationary phase and (D) exponential phase bacteria. Fibrinogen was used to coat plates at 4°C overnight at 10 μg/mL. Wells were washed with PBS and blocked with 1% BSA. Washed bacteria (OD600 of 1) were mixed with the relevant concentration of allantodapsone or vehicle control for 5 min, and added to the wells, incubating for 2 h at 37°C. Adherent cells were washed, fixed, and stained with crystal violet, and wells further washed. The dye was dissolved in acetic acid and the absorbance measured at 570 nm. Compounds were screened at a concentration of 70 μM and compared to their vehicle control. Statistical analysis was carried out using repeated measures ANOVA followed by multiple comparisons Dunnett’s tests using GraphPad PRISM. **, P ≤ 0.01; ***, P ≤ 0.001; ****, P ≤ 0.0001 (n = 3).
(§2) Adhesion assays were carried out according to Hartford et al. ([37]). Briefly, plates were coated with 10 μg/mL fibrinogen (Calbiochem, Darmstadt, Germany) or 20 μg/mL fibronectin (Sigma-Aldrich, Ireland) for 2 h at 37°C or for 16 h at 4°C. Plates were blocked with 1% BSA at 37°C for 1 h and washed 3 times in PBS. Washed bacteria were incubated at 37°C for 2 h. Adherent bacteria were washed three times in PBS and fixed in 5–9% formaldehyde at room temperature for 30 min. Wells were washed three times in PBS and stained using 5% crystal violet for 20 min. Wells were washed three times in PBS, and the crystal violet solubilized using 5% acetic acid. Plates were read at 570 nm on a Wallac Victor2, (Shelton, CT, USA). The minimum adhesion inhibitory concentration (MAIC) was determined as the concentration inhibiting greater than 90% bacterial adhesion.
(§3) Compounds were added to the bacterial suspension prior to addition to the wells. In each experiment, vehicle controls were prepared using the same volume of vehicle for the matching test compound.

S. aureus SH1000 = experiment: Adhesion of S. aureus SH1000 to immobilized fibrinogen (crystal violet); type: cell-based, Staphylococcus aureus; conditions: S. aureus SH1000, stationary and exponential phase; compounds screened at 70 μM (Fig. 2)
Experimental: as §1, §2, §3

S. aureus Newman [3] = experiment: Adhesion of S. aureus Newman to GST-L2v loricrin; type: cell-based, Staphylococcus aureus; conditions: for activity in adhesion of S. aureus Newman to L2v loricrin: screened at 80 μM (Fig. 4D)
Experimental: FIG 4 Allantodapsone inhibits S. aureus adhesion to loricrin and cytokeratin 10. Dose-response curve for adhesion of S. aureus Newman to GST-L2v loricrin (A) and CK10 (C). (B) Inhibition of recombinant ClfB N2N3 binding to immobilized GST-L2v loricrin by allantodapsone. (D) Inhibition of S. aureus Newman adhesion to GST-L2v loricrin by allantodapsone derivatives. Purified GST-L2v or CK10 were used to coat plates at 4°C overnight. Wells were washed with PBS and blocked with 1% BSA. Washed bacteria (OD600 of 1) were mixed with allantodapsone or vehicle control before being added to the wells and incubated for 2 h at 37°C. Adherent cells were washed, fixed, and stained with crystal violet, and wells further washed. The dye was dissolved in acetic acid, and the absorbance measured at 570 nm. GST-L2v was used at 20 μM in A and D. CK10 was used at 10 nM. Test compounds were incubated with bacteria at 80 μM and normalized to the DMSO vehicle control in D. For data presented in B, recombinant ClfB was incubated with allantodapsone (100 μM) or DMSO (1%) for 30 min prior to being added to wells coated with recombinant GST-L2v loricrin. Bound ClfB was detected using peroxidase-conjugated anti-His monoclonal antibody in an ELISA. The graphs shown are representative of three independent experiments. Statistics were carried out using one-way ANOVA followed by the Dunnett’s posttest using GraphPad Prism version 9.0.
as §2

| Compound | MIC90 (S. aureus Newman [1]) | inhibition of bacterial growth (words) (S. aureus Newman [1]) | inhibition of adhesion to fibrinogen (S. aureus Newman [2]) | activity of individual fragments of allantodapsone (S. aureus Newman [2]) | inhibition of adhesion to fibrinogen (S. aureus SH1000) | activity in adhesion of S. aureus Newman to L2v loricrin (S. aureus Newman [3]) | further results |
| --- | --- | --- | --- | --- | --- | --- | --- |
| CC1(C)S[C@@H]2[C@H](NC(=O)[C@H](N)c3ccccc3)C(=O)N2[C@H]1C(=O)O [ampicillin] | 0.03 µM and 0.01 µg/mL | pronounced inhibitory effect on growth | – | – | – | – | MIC90 reported for S. aureus isolates (MSSA isolates; microdilution method in MSSA isolates): 0.015 to 4 µg/mL |
| O=C1NC(=O)C(=O)C(=O)N1 [alloxan] | – | – | Neither dapsone nor alloxan had any inhibitory activity; also recorded: did not have any inhibitory effect | did not show any activity | Neither dapsone nor alloxan had any inhibitory activity | – | – |
| N=C(N)Nc1ccc(Oc2cccc(NC(=N)N)c2)cc1 [Compound 10] | – | – | – | – | – | loss of activity | – |
| Nc1ccc(S(=O)(=O)c2ccc(N)cc2)cc1 [dapsone] | 0.3 µM and 0.1 µg/mL | inhibited growth | Neither dapsone nor alloxan had any inhibitory activity; also recorded: did not have any inhibitory effect | did not show any activity | Neither dapsone nor alloxan had any inhibitory activity | – | MIC90 previously determined in MSSA strains (MSSA isolates; MSSA strains): 128 µg/mL (≈ 515 µM); range printed in parentheses after MIC90 in MSSA strains (MSSA isolates; MSSA strains): 32 to 256 µg/mL |
| O=C1NC(=O)C(=NO)C(=O)N1 [violuric acid] | – | – | – | did not show any activity | – | – | – |
| N=C(N)Nc1ccc(Oc2cccc(NC(=O)c3ccc(Cl)c(C(F)(F)F)c3)c2)cc1 [Compound 11] | – | – | – | – | – | demonstrated activity; also recorded: maintained some activity | adhesion to L2v loricrin, normalized to DMSO vehicle control (S. aureus Newman [3]; test compound at 80 μM, S. aureus Newman): 61.3% ± 7 |
